Measured values reported in patent publication US11926619B2, “Certain pladienolide compounds and methods of use” (EISAI R&D MANAGEMENT CO., LTD., priority 2018, dated 2024).
Like-named read-outs stand apart in the source and are kept apart here.

Legend:
Assay type in all cases: cell-based
[1] = system: WiDr cells (colon cancer cells; wildtype SF3B1); experiment: Cell viability assay (CellTiter-Glo, 72 hr), WiDr cells; conditions: Homo sapiens
Experimental: (§1) Cells (WiDr and Panc05.04 obtained from ATCC) were seeded in 96-well plates, with 2000 cells/100 μL/well, and incubated overnight. Spent media was removed, and fresh media containing 9 different concentrations of compound (100 μL/well) were added, with DMSO concentration from compound stock solution adjusted to be 0.1%. Each compound treatment was done in duplicate or triplicate at each concentration.
(§2) Another plate with cells seeded was dedicated as a time zero (Tz) plate, to which was added 0.1% DMSO in media (100 μL/well) followed by CellTiter-Glo® reagent (Promega Corporation, Madison, Wisconsin) (50 μL/well) for ATP measurement as a surrogate of cell viability. Average value from measurement of multiple wells of this plate is used as Tz. Compound-treated plates were incubated for 72 hr at 37° C. Then, CellTiter-Glo® reagent (50 μL/well) was added and ATP was measured. Average value from measurement of the duplicate or triplicate compound-treated wells is used as Ti, and seeded plates with medium having 0.1% DMSO without compound is used as control growth (C).
(§3) Percentage growth inhibition/Percentage viability was calculated as:
(§4) [(Ti−Tz)/(C−Tz)]×100 for concentrations for which Ti>/=Tz
(§5) [(Ti−Tz)/Tz]×100 for concentrations for which Ti<Tz.
(§6) *time zero (Tz), control growth (C), and test growth in the presence of compound (Ti) Percentage growth inhibition/Percentage viability are plotted versus compound concentration to determine Emax.
Emax refers to the maximum achievable response to a compound in a tested dose range, with a negative value indicating cellular lethality. A larger negative Emax value indicates greater cellular lethality for a particular compound. […]

[2] = system: WiDr-R cells (colon cancer cells; chemically-induced SF3B1 R1074H mutant); experiment: Cell viability assay (CellTiter-Glo, 72 hr), resistant WiDr-R cells (counter-screen)
Experimental: as §1, §2, §3, §4, §5, §6
(§7) Emax refers to the maximum achievable response to a compound in a tested dose range, with a negative value indicating cellular lethality. A larger negative Emax value indicates greater cellular lethality for a particular compound.
The counter-screening of compounds in this viability assay with a “resistant” WiDr-R cell line may indicate whether these compounds have off-target effect(s).

[3] = system: Panc 05.04 cells (pancreatic cancer cells; Q699H and K700E mutations in SF3B1); experiment: Cell viability assay (CellTiter-Glo, 72 hr), Panc 05.04 cells; conditions: for Emax: maximum achievable response in tested dose range, negative value = cellular lethality, read-out: Panc 05.04 (mt SF3B1 cells) Emax (%)
Experimental: as §1, §2, §3, §4, §5, §6, §7

[4] = WiDr cells (wildtype SF3B1), read-out: WiDr GI50
[5] = WiDr-R cells (SF3B1 R1074H mutation, resistant), read-out: WiDr-R GI50
[6] = Panc 05.04 cells (mutant SF3B1)
[7] = Panc 05.04 cells (mutant SF3B1), read-out: Panc 05.04 (mt SF3B1 cells), GI50
[8] = WiDr cells, 72 hr, CellTiter-Glo, read-out: WiDr GI50
[9] = Panc 05.04, Panc05.04 cells, 72 hr, CellTiter-Glo, read-out: Panc05.04 GI50

SMILES | GI50 [1, 4] | GI50 [2, 5] | Emax [3, 6] | GI50 [3, 7] | also measured
CC(=O)O[C@H]1/C=C/[C@H](C)[C@@H](/C(C)=C/C=C/[C@](C)(O)CCc2ccccc2)OC(=O)C[C@H](O)CC[C@@]1(C)O | 167 nM | > 10000 nM | -55.4% | 0.314 µM | 
C/C(=C\C=C\[C@@H](C)COC(=O)N1CC[C@@H](NC(=O)OC(C)(C)C)C1)[C@H]1OC(=O)C[C@H](O)CC[C@@](C)(O)[C@@H](OC(=O)N2CCN(C3CCCCCC3)CC2)/C=C/[C@@H]1C | 28 nM | > 1000 nM | -59.6% | 0.0594 µM | 
C/C(=C\C=C\[C@@H](C)COC(=O)N1CC[C@@H](O)C1)[C@H]1OC(=O)CCCC[C@@](C)(O)[C@@H](OC(=O)N2CCN(C)CC2)/C=C/[C@@H]1C | 11.2 nM | > 1000 nM | -94.6% | 0.00444 µM | 
C/C(=C\C=C\[C@@H](C)COC(=O)N1CC[C@@H](O)C1)[C@H]1OC(=O)CCCCC[C@@H](OC(=O)N(C)C)/C=C/[C@@H]1C |  |  | -83.7% | 0.139 µM | GI50 ([1]; WiDr, read-out: WiDr GI50 (nM)): 154 nM
C/C(=C\C=C\[C@@H](C)COC(=O)N1CCC[C@H]1CF)[C@H]1OC(=O)C[C@H](O)CC[C@@](C)(O)[C@@H](OC(=O)N2CCN(C)CC2)/C=C/[C@@H]1C | 1.7 nM | > 1000 nM | -82.1% | 0.00225 µM | 
CCC(=O)[C@@H](C)[C@H]1O[C@@H]1C[C@@](C)(O)/C=C/C=C(\C)[C@H]1OC(=O)CC(=O)CC[C@@](C)(O)[C@@H](OC(C)=O)/C=C/[C@@H]1C |  |  | -81.7% | 0.0977 µM | 
COCc1ccccc1CCC(C)/C=C/C=C(\C)[C@H]1OC(=O)C[C@H](O)CC[C@@](C)(O)[C@@H](OC(C)=O)/C=C/[C@@H]1C (stereo partly shown) |  |  | -39.5% | 0.427 µM | 
C/C(=C\C=C\C1(COC(=O)N2CCCC2)CC1)[C@H]1OC(=O)C[C@H](O)CC[C@@](C)(O)[C@@H](OC(=O)N2CCN(C3CCCCCC3)CC2)/C=C/[C@@H]1C | 138 nM | > 1000 nM | -24.7% | 0.302 µM | 
C/C(=C\C=C\[C@@H](C)COC(=O)N1CC[C@@H](F)C1)[C@H]1OC(=O)C[C@H](O)CC[C@@](C)(O)[C@@H](OC(=O)N2CCN(C3CCCCCC3)CC2)/C=C/[C@@H]1C | 7.64 nM | > 1000 nM | -92.2% | 0.0225 µM | 
CC(=O)O[C@H]1/C=C/[C@H](C)[C@@H](/C(C)=C/C=C/C(C)c2cccc(OCC(C)C)n2)OC(=O)C[C@H](O)CC[C@@]1(C)O (stereo partly shown) | 440 nM | > 10000 nM | -27.1% | 0.842 µM | 
C/C(=C\C=C\C(C)c1ccnc(N2CC[C@@H](O)C2)n1)[C@H]1OC(=O)CCCCC[C@@H](OC(=O)N2CCN(C3CCCCCC3)CC2)/C=C/[C@@H]1C (stereo partly shown) | 455 nM | > 10000 nM | -94.8% | 0.475 µM | 
CC(=O)O[C@H]1/C=C/[C@H](C)[C@@H](/C(C)=C/C=C/Cc2cccnc2)OC(=O)C[C@H](O)CC[C@@]1(C)O | 538 nM | > 10000 nM | 84.5% | > 6.4 µM | 
C/C(=C\C=C\Cc1ccccn1)[C@H]1OC(=O)C[C@H](O)CC[C@@](C)(O)[C@@H](OC(=O)N2CCN(C3CCCCCC3)CC2)/C=C/[C@@H]1C | 148 nM | > 1000 nM | 63.5% | > 4 µM | 
C/C(=C\C=C\[C@@H](C)COC(=O)N1CCC[C@H]1CO)[C@H]1OC(=O)C[C@H](O)CC[C@H](C)[C@@H](OC(=O)N2CCN(C)CC2)/C=C/[C@@H]1C | 2.66 nM | > 1000 nM | -79% | 0.00436 µM | 
C/C(=C\C=C\C(C)(C)COC(=O)N1CCCC1)[C@H]1OC(=O)C[C@H](OC(=O)N2CCCC2)CC[C@@](C)(O)[C@@H](OC(=O)N2CCN(C3CCCCCC3)CC2)/C=C/[C@@H]1C | 41.4 nM | 1880 nM | -92.4% | 0.0863 µM | 
C/C(=C\C=C\[C@H](C)c1cccnc1)[C@H]1OC(=O)C[C@H](O)CC[C@@](C)(O)[C@@H](OC(=O)N2CCN(C3CCCCCC3)CC2)/C=C/[C@@H]1C (single isomer, unassigned) [Compound 160] |  |  |  |  | GI50 [1, 8]: 29.5 nM; GI50 [3, 9]: 0.0158 µM

SMILES | GI50 [1, 4] | GI50 [2, 5] | Emax [3, 6] | GI50 [3, 7] | also measured
CC(=O)O[C@H]1/C=C/[C@H](C)[C@@H](/C(C)=C/C=C/C(C)(O)c2cccs2)OC(=O)C[C@H](O)CC[C@@]1(C)O (stereo partly shown) | 473 nM | > 10000 nM | 32.8% | 3.79 µM | 
C/C(=C\C=C\[C@@H](C)COC(=O)N1CCC[C@H]1C)[C@H]1OC(=O)C[C@H](O)CC[C@@](C)(O)[C@@H](OC(=O)N2CCN(C3CCCCCC3)CC2)/C=C/[C@@H]1C | 1.42 nM | 21.8 nM |  | 0.00252 µM | 
CC(=O)O[C@H]1/C=C/[C@H](C)[C@@H](/C(C)=C/C=C/C(C)c2cccc([C@H](C)CO)n2)OC(=O)C[C@H](O)CC[C@@]1(C)O (stereo partly shown) | 343 nM | > 10000 nM | -28.2% | 0.408 µM | 
C/C(=C\C=C\[C@@H](C)c1cccnc1)[C@H]1OC(=O)C[C@H](O)CC[C@@](C)(O)[C@@H](OC(=O)N2CCN(C3CCCCCC3)CC2)/C=C/[C@@H]1C (single isomer, unassigned) [Compound 159] |  |  |  |  | GI50 [1, 8]: 13.3 nM; GI50 [3, 9]: 0.015 µM
CCC(C)N(C)C(=O)OC[C@H](C)/C=C/C=C(\C)[C@H]1OC(=O)C[C@H](O)CC[C@@](C)(O)[C@@H](OC(C)=O)/C=C/[C@@H]1C (stereo partly shown) | 308 nM | > 10000 nM |  | 0.587 µM | 
C/C(=C\C=C\[C@@H](C)COC(=O)N1CCC(=O)C1)[C@H]1OC(=O)C[C@H](O)CC[C@@](C)(O)[C@@H](OC(=O)N2CCN(C3CCCCCC3)CC2)/C=C/[C@@H]1C | 4.77 nM | 449 nM | -93.6% | 0.00285 µM | 
CCCN(C)C(=O)OC[C@H](C)/C=C/C=C(\C)[C@H]1OC(=O)C[C@H](O)CC[C@@](C)(O)[C@@H](OC(=O)N2CCN(C3CCCCCC3)CC2)/C=C/[C@@H]1C |  |  | -92.4% | 0.279 µM | GI50 ([1]; WiDr, read-out: WiDr GI50 (nM)): 43.4 nM; GI50 ([2]; read-out: WiDr-R GI50 (nM)): > 1000 nM
COCc1ccc(CCC(C)/C=C/C=C(\C)[C@H]2OC(=O)C[C@H](O)CC[C@@](C)(O)[C@@H](OC(C)=O)/C=C/[C@@H]2C)cc1 (stereo partly shown) |  |  | -67.3% | 0.321 µM | 
C/C(=C\C=C\C(C)c1cccnc1)[C@H]1OC(=O)C[C@H](O)CC[C@@](C)(O)[C@@H](OC(=O)N2CCC(N3CCC(F)CC3)CC2)/C=C/[C@@H]1C (stereo partly shown) |  |  | 12.5% | 0.862 µM | 
C/C(=C\C=C\[C@@H](C)COC(=O)n1ccc2ccccc21)[C@H]1OC(=O)C[C@H](O)CC[C@@](C)(O)[C@@H](OC(=O)N2CCN(C)CC2)/C=C/[C@@H]1C | 36.6 nM | > 1000 nM | -92.8% | 0.0305 µM | 
CC[Si](CC)(CC)O[C@@H]1CCN(c2nccc(C(C)/C=C/C=C(\C)[C@H]3OC(=O)CCCCC[C@@H](OC(=O)N4CCN(C5CCCCCC5)CC4)/C=C/[C@@H]3C)n2)C1 (stereo partly shown) | > 1000 nM | > 10000 nM |  |  | 
CC(=O)O[C@H]1/C=C/[C@H](C)[C@@H](/C(C)=C/C=C/C(C)(O)CCc2ccc(O)cc2)OC(=O)C[C@H](O)CC[C@@]1(C)O (stereo partly shown) |  |  | -70.5% | 0.249 µM | 
CC[C@H](O)[C@@H](C)[C@H]1O[C@@H]1C[C@@](C)(O)/C=C/C=C(\C)[C@H]1OC(=O)C[C@H](O)CC[C@@](C)(OC)[C@@H](OC(=O)N(C)CCN(C)C)/C=C/[C@@H]1C |  |  | -64.4% | 0.00348 µM | 
CCOc1cccc(CCC(C)/C=C/C=C(\C)[C@H]2OC(=O)C[C@H](O)CC[C@@](C)(O)[C@@H](OC(C)=O)/C=C/[C@@H]2C)c1 (stereo partly shown) |  |  | -32% | 0.508 µM | 
CC(=O)O[C@H]1/C=C/[C@H](C)[C@@H](/C(C)=C/C=C/C(C)CCc2ccccc2)OC(=O)C[C@H](O)CC[C@@]1(C)O (stereo partly shown) |  |  | -26.4% | 0.827 µM | 
C/C(=C\C=C\[C@@H](C)CCC(=O)N1CCCC1)[C@H]1OC(=O)CC(O)CCC(C)(O)[C@@H](OC(=O)N2CCN(C)CC2)/C=C/[C@@H]1C (stereo in doubt) [Compound 1, [(2S,3S,4E,6S,7S,10S)-7,10-dihydroxy-3,7-dimethyl-2-[(2E,4E,6S)-6-methyl-9-oxo-9-pyrrolidin-1-ylnona-2,4-dien-2-yl]-12-oxo-1-oxacyclododec-4-en-6-yl] 4-methylpiperazine-1-carboxylate] |  |  |  |  | cellular lethality (Emax comparison) ([3]; Panc 05.04 cells, mutant SF3B1 cell line): greater cellular lethality than Compound 7
